{"source": "paper PMC10113214", "about": "(Scientific Reports, 2023)", "key": {"[1]": {"assay": "Circular dichroism, conformation and thermal stability of β-sheet", "assay_type": "physicochemical", "procedure": "The molar ellipticity of peptides were registered on a Jasco J-815 spectrometer (JASCO, Easton, MD, USA). Solutions of peptide hybrids were prepared in water solution (10 mg/ml), incubated at 37 °C for 4 h and then diluted to a final concentration of 0.20 mg/ml. CD spectra measurements were performed at 25 °C, 30 °C, 35 °C, 40 °C, 45 °C, 50 °C, 55 °C and 60 °C, at 190–260 nm wavelength and at a scan speed of […]. The background of the solvent was subtracted. The results are presented as the relationship of mean residue molar ellipticity (MRME) [deg × cm^2 × dmol^−1] to wavelength [nm]. Measurements were performed in triplicate. In order to determine the peptides’ denaturation temperatures, the molar ellipticity rotatory angle at a fixed wavelength of 196 nm, [θ]196, was measured as a function of temperature (max 100 °C). CD temperature measurements were carried out up to a temperature of 100 °C. Above this temperature, the cure was extrapolated with GraphPad Prism 8 software using the 4PL curve fit function. The denaturation temperature was determined as the temperature at which the change in ellipticity (θ) was half complete."}, "[2]": {"assay": "Transmission electron microscopy of nanofibres", "assay_type": "physicochemical", "settings": "1% gel in PBS diluted to 0.001%, uranyl acetate stain", "procedure": "1% gel solutions were prepared and incubated in PBS. The samples were then diluted to 0.001% concentration. A drop of solution was applied to a microcellulose membrane and stained with a 1.5% solution of uranyl acetate. The images were registered on a Tecnai Spirit BioTwin FEI Transmission Electron Microscope operating at 120 kV."}, "[3]": {"molecular_target": "T1, Human neutrophil elastase (Homo sapiens, UniProt P08246)", "T1 construct": "purchased Sigma-Aldrich", "T1 sequence (P08246 30-267)": "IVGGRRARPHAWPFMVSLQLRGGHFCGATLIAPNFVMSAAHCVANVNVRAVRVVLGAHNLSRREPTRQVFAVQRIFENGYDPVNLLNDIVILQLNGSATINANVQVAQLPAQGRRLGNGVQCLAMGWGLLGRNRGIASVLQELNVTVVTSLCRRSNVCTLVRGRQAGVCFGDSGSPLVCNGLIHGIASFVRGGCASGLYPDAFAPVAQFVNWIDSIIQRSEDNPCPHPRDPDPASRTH", "assay": "Elastase enzymatic cleavage", "assay_type": "in vitro ADME", "settings": "human neutrophil elastase 150 nM, peptide 1 mM, 30 min, 37 °C", "procedure": "Human neutrophil elastase (EC No. 3.4.21.37, Sigma-Aldrich) was used to study peptide susceptibility to that enzyme. Peptides were dissolved in 0.1 M Tris HCl, 500 mM NaCl, 0.05% Triton X-100, 20 mM CaCl2 pH 7.5 buffer mixture. Peptides (final concentration 1 mM) were mixed with the enzyme (final concentration 150 nM) and incubated for 30 min. in a thermoshaker (37 °C, 300 rpm). The reaction was stopped by a 10% aqueous solution of TFA. The results were analyzed using HPLC and MALDI or LC–MS. Details of this experiment are described in the Supplementary Data."}, "dorsal skin wounds": {"tested_on": "dorsal skin wounds", "assay": "Histological evaluation of skin samples", "assay_type": "in vivo, BALB/c mice", "settings": "Masson’s trichrome", "text": "Mice were sacrificed on day 18 post-injury. In addition, for investigation of early wound healing, 1 mouse from each group was sacrificed on day 4 post-injury. The skin samples were collected and stored in formalin. Skin samples embedded in paraffin were cut into 5 µm sections following staining with Masson’s trichrome (green: collagen, dermis; grey or dark grey: cell nuclei, epidermis, sebaceous glands; dark red: keratinized epidermis, muscle, hair; light red: red blood cells). Image acquisitions were made with a Leica DM IL microscope. To evaluate the collagen density in dorsal skin wounds, we employed the method of colour deconvolution described by Ruifrok and Johnston[52]. Using the ImageJ software with a colour deconvolution plug-in[53], we analyzed between 7 and 9 images of dorsal skin samples stained with Masson’ trichrome, representing 2–3 mice per group. The results are presented as mean relative collagen density."}, "Rheology of hydrogels": {"assay": "Rheology of hydrogels", "assay_type": "physicochemical", "settings": "1% hydrogel, 37 °C", "procedure": "Rheological parameters of the hydrogels were identified using an MCR 302 rheometer (Anton Paar GmbH, Graz, Austria). The rheometer was equipped with a CP50-1 stainless steel cone-and-plate system of 50 mm diameter, 1° cone angle and 50 µm cone truncation and a Peltier controlled temperature unit. An aliquot of 900 µL of 1% hydrogel was applied to a plate cone. The linear viscoelastic (LVE) region was determined through an amplitude sweeps: shear strain (0.01–100% at 6 rad s^−1) and shear stress (0.001–10 Pa at 6.28 rad s^−1). Frequency sweep were measured from 0.01 to 100 rad s^−1 at 2.5% strain. The frequency dependence of the storage modulus (G’) and loss modulus (G”) of the hydrogels were measured at 37 °C. All experiments were carried out in triplicate and reported as the mean of three repeats."}, "[4]": {"tested_on": "full-thickness excisional dorsal skin wounds", "assay": "Skin wound healing model in mice", "assay_type": "in vivo, BALB/c mice", "settings": "BALB/c female mice, 6.0 mm punch dorsal wounds, 10 µL 1% hydrogel topically daily for five days; n = 6, SD", "procedure": "Eight to ten-week-old BALB/c female mice were used for these experiments. All experimental procedures were approved by the Local Ethics Committee for Animal Experimentation in Bydgoszcz, Poland (Approval No. 49/2016). The study was conducted in compliance with the ARRIVE gudidelines. All animal handling methods were carried out in accordance with European Union Commission Recommendation of 18 June 2007 on guidelines for the accommodation and care of animals used for experimental and other scientific purposes. Before experiments, mice were randomized and divided into groups comprising six individuals. The mice were anaesthetized with inhaled 2–5% isoflurane. The skin on the dorsum was shaved and disinfected. After the skin was folded and raised cranially and caudally along the spine, the mouse was placed in a lateral position, and the folded skin was pierced with a 6.0 mm biopsy punch to make two through-and-through symmetrical wounds. Next, 10 µL of peptide hybrid hydrogel was applied onto each wound. Every gel was prepared in sterile conditions in biological safety cabinet, using sterile water to final concentration of 10 mg/ml (1%). Then the gels were incubated for 24 h allowing it to assemble. Control mice were treated with RADA16-I. The wounds were covered with a transparent Tegaderm TM dressing to protect the wound from outer environment of the cage and other animals. It was fastened with an adhesive plaster wrapped around the animal’s torso. The peptide hybrids were applied daily to the wounds for five consecutive days. The dressings were replaced daily in the first five days of the experiment and every second day until the end of the second week of the experiment. To measure the wound areas the wounds were photographed with a ruler placed next to the injury site. Wound areas were calculated using the computer-assisted image analysis program ImageJ[51]."}, "[5]": {"tested_on": "Human neutrophil elastase (EC No. 3.4.21.37, Sigma-Aldrich)", "assay": "Human neutrophil elastase (final concentration 150 nM) in 0.1 M Tris HCl, 500 mM NaCl, 0.05% Triton X-100, 20 mM CaCl2 pH 7.5 buffer mixture", "settings": "37 °C, up to 30 min."}}, "note": "Entries after “also recorded” stand apart in the source; their conditions may differ.", "data": [{"compound": "CC(=O)N[C@@H](CCCNC(=N)N)C(=O)N[C@@H](C)C(=O)N[C@@H](CC(=O)O)C(=O)N[C@@H](C)C(=O)N[C@@H](CCCNC(=N)N)C(=O)N[C@@H](C)C(=O)N[C@@H](CC(=O)O)C(=O)N[C@@H](C)C(=O)N[C@@H](CCCNC(=N)N)C(=O)N[C@@H](C)C(=O)N[C@@H](CC(=O)O)C(=O)N[C@@H](C)C(=O)N[C@@H](CCCNC(=N)N)C(=O)N[C@@H](C)C(=O)N[C@@H](CC(=O)O)C(=O)N[C@@H](C)C(N)=O", "note": "[RADA16-I, Ac-(Arg-Ala-Asp-Ala)4-NH2]", "values": [{"measurement": "heat stability of β-sheet structure (rank)", "setting": "[1]; CD scans at different temperatures", "result": "lowest stability of β-sheet structure"}]}, {"compound": "CC(=O)N[C@@H](CCCNC(=N)N)C(=O)N[C@@H](C)C(=O)N[C@@H](CC(=O)O)C(=O)N[C@@H](C)C(=O)N[C@@H](CCCNC(=N)N)C(=O)N[C@@H](C)C(=O)N[C@@H](CC(=O)O)C(=O)N[C@@H](C)C(=O)N[C@@H](CCCNC(=N)N)C(=O)N[C@@H](C)C(=O)N[C@@H](CC(=O)O)C(=O)N[C@@H](C)C(=O)N[C@@H](CCCNC(=N)N)C(=O)N[C@@H](C)C(=O)N[C@@H](CC(=O)O)C(=O)N[C@@H](C)C(=O)NCC(=O)NCC(=O)NCC(=O)N[C@@H](C)C(=O)N[C@@H](C)C(=O)N1CCC[C@H]1C(=O)N[C@H](C(=O)NCC(=O)NCC(=O)NCC(=O)N[C@@H](CCCNC(=N)N)C(=O)N[C@@H](CC(=O)O)C(=O)N[C@@H](CCCCN)C(=O)N[C@H](C(=O)N[C@@H](Cc1ccc(O)cc1)C(=O)N[C@@H](CCCNC(=N)N)C(N)=O)C(C)C)C(C)C", "note": "[RADA-IM, Ac-(Arg-Ala-Asp-Ala)4-Gly-Gly-Gly-Ala-Ala-Pro-Val-Gly-Gly-Gly-Arg-Asp-Lys-Val-Tyr-Arg-NH2]", "values": [{"measurement": "fibre thickness (TEM)", "setting": "[2]", "result": "6–8 nm"}, {"measurement": "identified fragments of peptides after elastase digestion (most abundant MS signals)", "setting": "[3]; 300 rpm, 0.1 M Tris HCl, 500 mM NaCl, 0.05% Triton X-100, 20 mM CaCl2 pH 7.5, HPLC and MALDI or LC-MS, fragment Ac-(RADA)4-GGG-AAPV-COOH", "result": "Ac-(RADA)4-GGG-AAPV-COOH"}, {"measurement": "main / predominant fragments of elastase digestion", "setting": "[3]; pH 7.5 buffer, HPLC, mass spectrometry", "result": "Gly^24Gly^25Gly^26Arg^27Asp^28Lys^29Val^30Tyr^31Arg^32"}, {"measurement": "collagen density on day 18 post-injury", "setting": "dorsal skin wounds; colour deconvolution, 7–9 images, 2–3 mice per group", "result": "statistically significant lower collagen density than the RADA16-I sample"}, {"measurement": "hair follicles in wound area on day 18", "setting": "dorsal skin wounds; day 18 post-injury", "result": "many hair follicles could be observed"}, {"measurement": "epithelium (membrane-like structure) thickness on day 4 post-injury", "setting": "dorsal skin wounds; versus RADA16-I group, Mann–Whitney U test", "result": "significantly thicker epithelium"}, {"measurement": "magnitude of G’ compared with other gels", "setting": "Rheology of hydrogels; cone-plate, frequency sweep, mean of three repeats", "result": "around one-tenth of these values"}, {"measurement": "shear strain above which the gel behaves like a liquid (G” > G’)", "setting": "Rheology of hydrogels; strain sweep, ω = 6.28 rad/s", "result": "above 30%"}, {"measurement": "wound closure on day 7", "setting": "[4]", "result": "16.2 ± 21.1", "unit": "%"}, {"measurement": "temperature of first disruption of the β-sheets", "setting": "[1]; CD, [θ]196 nm as function of temperature 4–100 °C, gel 10 mg/ml in water, 37 °C 4 h, diluted to 0.20 mg/ml, decrease of molar ellipticity", "result": "~52", "unit": "°C"}, {"measurement": "transition temperature (half β-conformation, half disordered)", "setting": "[1]; CD, [θ]196 nm vs temperature, 0.20 mg/ml in water, above 100 °C curve extrapolated, 4PL fit", "result": 95, "unit": "°C"}]}, {"compound": "Ac-(Arg-Ala-Asp-Ala)4-Gly-Gly-Gly-Ala-Ala-Pro-Val-Gly-Gly-Gly-Arg-Asp-Lys-Val-Tyr-Arg-NH2", "values": [{"measurement": "cleaved bond", "setting": "[5]", "result": "Val23-Gly24, major; also recorded: Gly24-Gly25, major"}]}, {"compound": "Ac-(Arg-Ala-Asp-Ala)4-Gly-Gly-Gly-Ala-Ala-Pro-Val-Gly-Gly-Gly-His-Lys-NH2", "values": [{"measurement": "cleaved bond", "setting": "[5]", "result": "Val23-Gly24; also recorded: Gly25-Gly26, major"}]}, {"compound": "Ac-(Arg-Ala-Asp-Ala)4-Gly-Gly-Gly-Ala-Ala-Pro-Val-Gly-Gly-Gly-Lys-Gly-His-Lys-NH2", "values": [{"measurement": "cleaved bond", "setting": "[5]", "result": "Val23-Gly24; also recorded: Ala21-Pro22, major; also recorded: Ala20-Ala21, major"}]}]}
